Measurements reported in patent US9422267B2, “Fused pyrimidine compounds and use thereof” (Medivation Technologies, Inc., priority 2012, dated 2016).
pIC50: −log10 of the molar value. Read-outs that look alike come from different tables or passages of the source.

Experiments:
IR = target: T1, IR (Homo sapiens, UniProt P06213); experiment: In vitro IR enzymatic assay (ADP-Glo kinase assay); assay type: biochemical; conditions: activated IR; for pIC50: read-out: IC50; for inhibition at 0.03 µM: 30 nM
T1 construct: purchased Millipore 14-803
T1 sequence (P06213 28-1382): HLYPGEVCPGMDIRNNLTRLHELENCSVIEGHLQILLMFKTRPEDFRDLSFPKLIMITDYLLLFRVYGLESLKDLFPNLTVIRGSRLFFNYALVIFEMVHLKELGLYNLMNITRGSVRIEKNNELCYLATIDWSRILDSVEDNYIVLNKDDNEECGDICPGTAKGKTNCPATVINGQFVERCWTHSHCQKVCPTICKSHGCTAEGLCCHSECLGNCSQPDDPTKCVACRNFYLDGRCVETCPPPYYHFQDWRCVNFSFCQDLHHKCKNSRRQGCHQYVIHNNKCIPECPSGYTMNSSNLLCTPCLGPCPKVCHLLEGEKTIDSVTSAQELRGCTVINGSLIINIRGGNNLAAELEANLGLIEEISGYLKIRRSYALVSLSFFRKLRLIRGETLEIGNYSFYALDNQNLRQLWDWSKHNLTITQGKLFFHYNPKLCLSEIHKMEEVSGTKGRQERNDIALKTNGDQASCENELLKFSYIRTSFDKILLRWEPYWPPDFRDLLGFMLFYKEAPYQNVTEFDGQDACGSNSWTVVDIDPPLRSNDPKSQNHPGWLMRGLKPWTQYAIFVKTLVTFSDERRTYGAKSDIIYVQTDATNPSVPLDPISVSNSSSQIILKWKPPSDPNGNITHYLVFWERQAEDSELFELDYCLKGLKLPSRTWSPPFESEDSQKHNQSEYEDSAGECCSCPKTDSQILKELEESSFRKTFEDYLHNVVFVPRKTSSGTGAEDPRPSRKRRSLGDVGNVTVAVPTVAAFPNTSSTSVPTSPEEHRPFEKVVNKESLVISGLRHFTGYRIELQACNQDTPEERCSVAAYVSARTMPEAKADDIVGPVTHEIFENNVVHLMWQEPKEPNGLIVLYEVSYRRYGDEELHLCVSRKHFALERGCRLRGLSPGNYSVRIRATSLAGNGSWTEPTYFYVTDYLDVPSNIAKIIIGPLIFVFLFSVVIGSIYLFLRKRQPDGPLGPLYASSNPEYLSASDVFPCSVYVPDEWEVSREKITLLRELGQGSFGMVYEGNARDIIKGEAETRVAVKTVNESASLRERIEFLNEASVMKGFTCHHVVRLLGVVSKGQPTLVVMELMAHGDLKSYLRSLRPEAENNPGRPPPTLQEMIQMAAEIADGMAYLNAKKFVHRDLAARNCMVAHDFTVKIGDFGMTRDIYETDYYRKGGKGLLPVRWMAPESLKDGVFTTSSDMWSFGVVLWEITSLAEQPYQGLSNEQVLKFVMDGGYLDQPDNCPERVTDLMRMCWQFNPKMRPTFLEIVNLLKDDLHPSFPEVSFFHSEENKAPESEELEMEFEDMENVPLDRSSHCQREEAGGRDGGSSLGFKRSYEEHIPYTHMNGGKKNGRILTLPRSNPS
Protocol: (§1) IC50 values of the compounds of the invention against IGF-1R and IR were measured in vitro using an ADP-Glo kinase assay Kit (Promega). […] Kinase reactions in both assays were conducted at 30° C. for 20 min with increasing concentrations of compounds of the invention.

FAK2(PTK2b) = FAK2(PTK2b) (Homo sapiens, UniProt Q14289); experiment: Caliper kinase assay: FAK2(PTK2b); conditions: 0.01 μM
Protocol: (§2) The compound was tested at concentrations of 1.0×10^−8 and 1.0×10^−9 M in the RapidKinase192™ panel in duplicate. […] The screening was performed using the Caliper EZReader2, a 4-sipper LabChip, and ProfilerPro Kinase Selectivity Assay Kits 1 and 2. The assay measures the conversion of a fluorescent peptide substrate to a phosphorylated product. Briefly, the reaction mixture was introduced through a capillary sipper onto the microfluidic chip, where the substrate and product were electrophoretically separated and detected by laser-induced fluorescence. The time-dependent fluorescence signal indicates the extent of the reaction.
(§3) The kinases tested were AurA, AurB, AurC, AXL, FAK2, IGF1R, InsR, Mer, MET, TrkB and TrkC.
(§4) The assays were conducted using the Caliper LabChip 3000 and a 12-sipper LabChip as described above.

TRKC (NTRK3) = TRKC (NTRK3) (Homo sapiens, UniProt Q16288); experiment: Caliper kinase profiling: TRKC (NTRK3); conditions: 0.01 μM
Sequence of TRKC (NTRK3) (Q16288 32-839): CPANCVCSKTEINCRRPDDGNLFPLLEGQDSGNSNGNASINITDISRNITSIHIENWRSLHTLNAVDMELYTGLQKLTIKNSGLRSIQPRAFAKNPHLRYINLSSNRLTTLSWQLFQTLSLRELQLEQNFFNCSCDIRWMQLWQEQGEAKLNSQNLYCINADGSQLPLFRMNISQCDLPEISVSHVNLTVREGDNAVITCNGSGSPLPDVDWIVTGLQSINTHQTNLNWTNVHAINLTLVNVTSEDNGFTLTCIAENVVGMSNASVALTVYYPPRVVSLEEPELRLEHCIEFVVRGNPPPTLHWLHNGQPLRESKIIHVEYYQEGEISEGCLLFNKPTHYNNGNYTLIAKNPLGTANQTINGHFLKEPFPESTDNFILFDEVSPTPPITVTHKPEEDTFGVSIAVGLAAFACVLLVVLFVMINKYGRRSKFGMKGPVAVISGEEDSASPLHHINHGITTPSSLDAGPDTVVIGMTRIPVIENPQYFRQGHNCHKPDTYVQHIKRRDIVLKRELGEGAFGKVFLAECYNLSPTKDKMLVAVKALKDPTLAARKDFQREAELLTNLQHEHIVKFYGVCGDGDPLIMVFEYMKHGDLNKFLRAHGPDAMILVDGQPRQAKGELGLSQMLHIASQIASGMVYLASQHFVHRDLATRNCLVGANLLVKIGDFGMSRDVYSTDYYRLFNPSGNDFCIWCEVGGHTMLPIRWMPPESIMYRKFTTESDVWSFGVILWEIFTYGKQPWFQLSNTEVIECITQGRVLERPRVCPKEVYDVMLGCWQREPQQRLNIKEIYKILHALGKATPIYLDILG
Protocol: as §2, §3, §4

NTRK2 (TRKB) = NTRK2 (TRKB) (Homo sapiens, UniProt Q16620); experiment: Caliper kinase profiling: NTRK2 (TRKB); conditions: 0.01 μM
Sequence of NTRK2 (TRKB) (Q16620 32-822): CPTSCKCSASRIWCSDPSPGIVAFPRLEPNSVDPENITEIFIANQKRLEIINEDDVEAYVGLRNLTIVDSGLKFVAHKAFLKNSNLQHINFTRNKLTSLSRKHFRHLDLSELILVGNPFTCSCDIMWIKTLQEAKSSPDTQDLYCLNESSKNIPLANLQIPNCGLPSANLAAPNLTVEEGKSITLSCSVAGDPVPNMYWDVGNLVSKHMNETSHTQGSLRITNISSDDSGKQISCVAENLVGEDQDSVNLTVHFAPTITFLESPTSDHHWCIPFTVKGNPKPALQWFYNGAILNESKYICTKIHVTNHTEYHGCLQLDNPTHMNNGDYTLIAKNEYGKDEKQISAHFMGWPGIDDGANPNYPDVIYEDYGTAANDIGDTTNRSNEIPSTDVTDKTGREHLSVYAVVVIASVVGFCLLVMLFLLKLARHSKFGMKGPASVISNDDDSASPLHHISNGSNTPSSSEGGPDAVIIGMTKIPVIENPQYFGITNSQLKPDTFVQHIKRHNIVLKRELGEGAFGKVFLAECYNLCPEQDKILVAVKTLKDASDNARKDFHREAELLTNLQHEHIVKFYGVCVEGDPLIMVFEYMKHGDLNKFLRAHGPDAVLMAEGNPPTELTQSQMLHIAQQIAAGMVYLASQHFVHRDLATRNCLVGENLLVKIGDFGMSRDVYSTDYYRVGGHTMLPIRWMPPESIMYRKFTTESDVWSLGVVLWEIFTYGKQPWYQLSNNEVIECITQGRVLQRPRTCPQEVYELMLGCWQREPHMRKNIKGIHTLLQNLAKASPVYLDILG
Protocol: as §2, §3, §4

AXL = target: T2, AXL (Homo sapiens, UniProt P30530); experiment: Caliper kinase profiling: AXL; conditions: 0.01 μM
T2 sequence (P30530 26-894): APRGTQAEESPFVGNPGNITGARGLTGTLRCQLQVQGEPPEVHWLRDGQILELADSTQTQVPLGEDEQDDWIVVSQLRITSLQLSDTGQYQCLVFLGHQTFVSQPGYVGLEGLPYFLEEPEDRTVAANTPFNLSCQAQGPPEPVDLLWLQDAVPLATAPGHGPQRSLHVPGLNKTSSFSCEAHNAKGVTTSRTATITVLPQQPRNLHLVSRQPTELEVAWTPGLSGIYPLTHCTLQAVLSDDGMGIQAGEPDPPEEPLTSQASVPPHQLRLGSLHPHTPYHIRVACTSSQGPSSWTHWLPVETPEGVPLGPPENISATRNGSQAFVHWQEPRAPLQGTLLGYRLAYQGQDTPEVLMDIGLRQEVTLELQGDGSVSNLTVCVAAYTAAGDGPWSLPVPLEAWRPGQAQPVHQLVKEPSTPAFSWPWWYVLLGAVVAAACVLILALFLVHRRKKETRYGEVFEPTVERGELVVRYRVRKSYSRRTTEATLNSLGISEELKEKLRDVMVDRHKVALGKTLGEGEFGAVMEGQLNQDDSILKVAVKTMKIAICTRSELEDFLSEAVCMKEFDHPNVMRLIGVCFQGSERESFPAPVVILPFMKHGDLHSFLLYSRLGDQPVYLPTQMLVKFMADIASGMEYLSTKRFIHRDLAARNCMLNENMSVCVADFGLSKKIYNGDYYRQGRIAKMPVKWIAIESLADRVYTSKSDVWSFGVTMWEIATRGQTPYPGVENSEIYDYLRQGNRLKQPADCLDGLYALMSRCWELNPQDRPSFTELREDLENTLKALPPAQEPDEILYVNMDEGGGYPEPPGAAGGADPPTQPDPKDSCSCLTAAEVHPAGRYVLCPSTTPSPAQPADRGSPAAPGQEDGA
Protocol: as §2, §3, §4

IGF1R = IGF1R (Homo sapiens, UniProt P08069); experiment: In vitro IGF-1R enzymatic assay (ADP-Glo kinase assay); assay type: biochemical; parameters: purchased Millipore 14-802; conditions: activated IGF-1R; for pIC50: read-out: IC50; for inhibition at 0.03 µM: 30 nM
Sequence of IGF1R (P08069 31-1367): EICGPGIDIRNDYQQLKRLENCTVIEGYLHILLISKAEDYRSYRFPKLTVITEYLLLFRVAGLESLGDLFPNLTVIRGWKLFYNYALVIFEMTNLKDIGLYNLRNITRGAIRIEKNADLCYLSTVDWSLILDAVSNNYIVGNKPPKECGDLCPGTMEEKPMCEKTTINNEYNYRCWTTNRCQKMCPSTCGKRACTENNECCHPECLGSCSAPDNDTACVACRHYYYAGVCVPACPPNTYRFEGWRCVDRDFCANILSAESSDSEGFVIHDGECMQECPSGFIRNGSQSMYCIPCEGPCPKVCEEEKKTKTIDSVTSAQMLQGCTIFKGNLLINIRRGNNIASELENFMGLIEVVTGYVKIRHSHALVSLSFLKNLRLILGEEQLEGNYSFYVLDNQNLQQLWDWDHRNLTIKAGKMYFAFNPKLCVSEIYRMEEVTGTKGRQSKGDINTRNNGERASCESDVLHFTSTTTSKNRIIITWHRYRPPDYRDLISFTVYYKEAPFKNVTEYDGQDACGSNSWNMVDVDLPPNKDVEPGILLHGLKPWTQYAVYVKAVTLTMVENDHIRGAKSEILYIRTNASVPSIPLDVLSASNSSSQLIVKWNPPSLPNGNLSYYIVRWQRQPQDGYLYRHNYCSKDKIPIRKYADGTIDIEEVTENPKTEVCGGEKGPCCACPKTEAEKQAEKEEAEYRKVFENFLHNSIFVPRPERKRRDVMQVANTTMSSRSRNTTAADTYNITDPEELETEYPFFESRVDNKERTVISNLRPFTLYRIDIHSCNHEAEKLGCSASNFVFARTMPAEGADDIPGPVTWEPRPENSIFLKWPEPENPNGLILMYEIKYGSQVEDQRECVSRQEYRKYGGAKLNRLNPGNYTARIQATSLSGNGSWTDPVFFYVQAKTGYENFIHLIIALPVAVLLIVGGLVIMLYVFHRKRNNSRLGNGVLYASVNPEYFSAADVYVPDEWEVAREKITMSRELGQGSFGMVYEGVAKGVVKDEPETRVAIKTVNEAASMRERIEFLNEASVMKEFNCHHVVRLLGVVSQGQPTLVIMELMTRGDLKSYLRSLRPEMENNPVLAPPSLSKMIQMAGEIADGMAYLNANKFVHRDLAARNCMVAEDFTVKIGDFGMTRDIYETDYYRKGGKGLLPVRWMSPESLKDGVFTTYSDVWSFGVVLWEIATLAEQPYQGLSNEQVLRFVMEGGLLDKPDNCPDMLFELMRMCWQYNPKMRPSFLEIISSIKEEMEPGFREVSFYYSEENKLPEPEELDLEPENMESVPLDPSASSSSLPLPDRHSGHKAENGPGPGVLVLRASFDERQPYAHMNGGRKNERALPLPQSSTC
Protocol: as §1

[1] = test system: Akt phosphorylation induced by IGF-1R in HT-29 cells; experiment: Western blot analysis of Akt phosphorylation induced by IGF-1R; assay type: cell-based, Human; conditions: then IGF-1 10 ng/mL 10 min, HT-29
Protocol: Inhibition of Akt phosphorylation induced by IGF-1R was studied by western blot analysis. Human colon carcinoma HT-29 cells were seeded at a density of 8×10^4 cells/well in a 24-well plate and grown in DME/F12 media containing 10% FBS for 24 h. The cells were then depleted of serum by incubation in DME/F12 media lacking FBS for 24 h. […] […] Lysed cells were centrifuged at 13,000 rpm for 15 min and the protein concentration soluble fraction (supernatant) of each sample was determined using a BCA protein assay (Pierce).

[2] = average, read-out: % Inh @ 30 nM Avg
[3] = replicate N1, read-out: % Inh @ 30 nM (N1)
[4] = replicate N2, read-out: % Inh @ 30 nM (N2)

Structure (SMILES)	pIC50 (IR)	inhibition at 0.03 µM (IR; [2])	phosphorylated AKT levels normalized to actin levels (pAKT/actin) ([1]; 0.1 nM compound 2 h)	phosphorylated AKT levels normalized to actin levels (pAKT/actin) ([1]; 100 nM compound 2 h)	inhibition at 0.03 µM (IGF1R; [2])	inhibition at 0.03 µM (IGF1R; [3])	inhibition at 0.03 µM (IGF1R; [4])	other results
CC(C)c1cc(Nc2nc(N3CCCC3C(=O)Nc3ccc(N)nc3)nc3c2CCC3)n[nH]1 (racemic) [Compound 72, N-(6-aminopyridin-3-yl)-1-(4-(5-isopropyl-1H-pyrazol-3-ylamino)-6,7-dihydro-5H-cyclopenta[d]pyrimidin-2-yl)pyrrolidine-2-carboxamide]	7.80							
CC(C)c1cc(Nc2nc(N3CC(O)CC3C(=O)Nc3ccc(F)nc3)nc3c2CCC3)n[nH]1 (racemic) [Compound 70, N-(6-fluoropyridin-3-yl)-4-hydroxy-1-(4-(5-isopropyl-1H-pyrazol-3-ylamino)-6,7-dihydro-5H-cyclopenta[d]pyrimidin-2-yl)pyrrolidine-2-carboxamide]	7.66							
COC1CC(C(=O)Nc2ccc(F)nc2)N(c2nc3c(c(Nc4cc(C5CC5)[nH]n4)n2)CCC3)C1 (single isomer, unassigned) [Compound 21b]	6.92	30%						
O=C(Nc1ccc(F)nc1)C1CC(O)CN1c1nc2c(c(Nc3cc(C4CC4)[nH]n3)n1)CCC2 (single isomer, unassigned) [Compound 10d, 1-(4-(5-cyclopropyl-1H-pyrazol-3-ylamino)-6,7-dihydro-5H-cyclopenta[d]pyrimidin-2-yl)-N-(6-fluoropyridin-3-yl)-4-hydroxypyrrolidine-2-carboxamide]	8.14							inhibition of FAK2 in panel of 11 kinases (FAK2(PTK2b)): strongly inhibited; inhibition of TrkC in panel of 11 kinases (TRKC (NTRK3)): strongly inhibited; inhibition of TrkB in panel of 11 kinases (NTRK2 (TRKB)): strongly inhibited; inhibition of AXL in panel of 11 kinases (AXL): strongly inhibited; pIC50 (IGF1R): 8.24
O=C(Nc1ccc(F)nc1)C1CCCN1c1nc2c(c(Nc3cc(C4CC4)[nH]n3)n1)CCCC2 (single isomer, unassigned) [Compound 14b, 1-(4-(5-cyclopropyl-1H-pyrazol-3-ylamino)-5,6,7,8-tetrahydroquinazolin-2-yl)-N-(6-fluoropyridin-3-yl)pyrrolidine-2-carboxamide]	7.80	81%	0.51	0.00	77%	77%	76%	phosphorylated AKT levels normalized to actin levels (pAKT/actin) ([1]; 1 nM compound 2 h): 0.49; phosphorylated AKT levels normalized to actin levels (pAKT/actin) ([1]; 10 nM compound 2 h): 0.02; inhibition at 0.03 µM (IR; [3]): 82%; inhibition at 0.03 µM (IR; [4]): 81%; pIC50 (IGF1R): 7.66
CC(C)c1cc(Nc2nc(N3CCCC3C(=O)Nc3ccc(F)nc3)nc3c2CCCC3)n[nH]1 (single isomer, unassigned) [Compound 13b, N-(6-fluoropyridin-3-yl)-1-(4-(5-isopropyl-1H-pyrazol-3-ylamino)-5,6,7,8-tetrahydroquinazolin-2-yl)pyrrolidine-2-carboxamide]	7.89		0.22	0.00				phosphorylated AKT levels normalized to actin levels (pAKT/actin) ([1]; 1 nM compound 2 h): 0.09; phosphorylated AKT levels normalized to actin levels (pAKT/actin) ([1]; 10 nM compound 2 h): 0.00; pIC50 (IGF1R): 7.77
CC(C)c1cc(Nc2nc(N3CC(O)CC3C(=O)Nc3nccs3)nc3c2CCC3)n[nH]1 (racemic) [Compound 71, 4-hydroxy-1-(4-(5-isopropyl-1H-pyrazol-3-ylamino)-6,7-dihydro-5H-cyclopenta[d]pyrimidin-2-yl)-N-(thiazol-2-yl)pyrrolidine-2-carboxamide]	7.36							
CC(C)c1cc(Nc2nc(N3CCCC3C(=O)Nc3ccc(F)nc3)nc3c2CC(C)(C)C3)n[nH]1 (racemic) [Compound 50, N-(6-fluoropyridin-3-yl)-1-(4-((5-isopropyl-1H-pyrazol-3-yl)amino)-6,6-dimethyl-6,7-dihydro-5H-cyclopenta[d]pyrimidin-2-yl)pyrrolidine-2-carboxamide]	7.44	51%			35%			
O=C(Nc1ccc(F)nc1)C1CCCN1c1nc2c(c(Nc3cc(C4CCCC4)[nH]n3)n1)CCCC2 (single isomer, unassigned) [Compound 15a, 1-(4-(5-cyclopentyl-1H-pyrazol-3-ylamino)-5,6,7,8-tetrahydroquinazolin-2-yl)-N-(6-fluoropyridin-3-yl)pyrrolidine-2-carboxamide]			0.70	0.59	19%	17%	20%	phosphorylated AKT levels normalized to actin levels (pAKT/actin) ([1]; 1 nM compound 2 h): 0.89; phosphorylated AKT levels normalized to actin levels (pAKT/actin) ([1]; 10 nM compound 2 h): 0.92
CC(C)c1cc(Nc2nc(N3CCCC3C(=O)Nc3nccs3)nc3c2CCC3)n[nH]1 (racemic) [Compound 68, 1-(4-(5-isopropyl-1H-pyrazol-3-ylamino)-6,7-dihydro-5H-cyclopenta[d]pyrimidin-2-yl)-N-(thiazol-2-yl)pyrrolidine-2-carboxamide]	7.96							
CC(C)c1cc(Nc2nc(N3CCCC3C(=O)Nc3ccncn3)nc3c2CCC3)n[nH]1 (racemic) [Compound 69, 1-(4-(5-isopropyl-1H-pyrazol-3-ylamino)-6,7-dihydro-5H-cyclopenta[d]pyrimidin-2-yl)-N-(pyrimidin-4-yl)pyrrolidine-2-carboxamide]	7.49							
O=C(Nc1ccc(F)nc1)C1CCCCN1c1nc2c(c(Nc3cc(C4CC4)[nH]n3)n1)CCC2 (single isomer, unassigned) [Compound 9b, 1-(4-(5-cyclopropyl-1H-pyrazol-3-ylamino)-6,7-dihydro-5H-cyclopenta[d]pyrimidin-2-yl)-N-(6-fluoropyridin-3-yl)piperidine-2-carboxamide]		6%		0.78	16%	14%	17%	inhibition at 0.03 µM (IR; [3]): 3%; inhibition at 0.03 µM (IR; [4]): 9%
O=C(Nc1ccc(F)nc1)C1CCCCN1c1nc2c(c(Nc3cc(C4CCCC4)[nH]n3)n1)CCC2 (single isomer, unassigned) [Compound 17a, 1-(4-(5-cyclopentyl-1H-pyrazol-3-ylamino)-6,7-dihydro-5H-cyclopenta[d]pyrimidin-2-yl)-N-(6-fluoropyridin-3-yl)piperidine-2-carboxamide]		3%	0.89		18%	12%	24%	inhibition at 0.03 µM (IR; [3]): 2%; inhibition at 0.03 µM (IR; [4]): 5%
